Test results: patent publication US8492398B2, “Spiroazaindoles” (Merck Sharp & Dohme Corp., priority 2008, dated 2013)

Target: PHD2 (Homo sapiens, UniProt Q9GZT9)
Assay: Assay for HIF-PHD2 catalytic activity (time-resolved fluorescence, VHL complex detection)
Format: biochemical
Conditions: FLAG-tagged full length PHD2; 0.2 μM 2-oxoglutarate, 0.5 μM HIF-1α peptide; read-out: PHD2 Activity (PHD2 binding activity expressed as IC50)
Procedure: Assay for HIF-PHD2 Catalytic Activity
After a 30 min preincubation at room temperature, the enzymatic reactions were initiated by the addition of 4 μL of substrates (final concentrations of 0.2 μM 2-oxoglutarate and 0.5 μM HIF-1α peptide biotinyl-DLDLEMLAPYIPMDDDFQL). After 2 hr at room temperature, the reactions were terminated and signals were developed by the addition of a 25 μL quench/detection mix to a final concentration of 1 mM ortho-phenanthroline, 0.1 mM EDTA, 0.5 nM anti-(His)6 LANCE reagent (Perkin-Elmer Life Sciences), 100 nM AF647-labeled streptavidin (Invitrogen), and 2 μg/ml (His)6-VHL complex (S. Tan (2001) Protein Expr. Purif. 21, 224-234). The ratio of time resolved fluorescence signals at 665 and 620 nm was determined, and percent inhibition was calculated relative to an uninhibited control sample run in parallel.

Sequence of PHD2 (Q9GZT9 whole entry): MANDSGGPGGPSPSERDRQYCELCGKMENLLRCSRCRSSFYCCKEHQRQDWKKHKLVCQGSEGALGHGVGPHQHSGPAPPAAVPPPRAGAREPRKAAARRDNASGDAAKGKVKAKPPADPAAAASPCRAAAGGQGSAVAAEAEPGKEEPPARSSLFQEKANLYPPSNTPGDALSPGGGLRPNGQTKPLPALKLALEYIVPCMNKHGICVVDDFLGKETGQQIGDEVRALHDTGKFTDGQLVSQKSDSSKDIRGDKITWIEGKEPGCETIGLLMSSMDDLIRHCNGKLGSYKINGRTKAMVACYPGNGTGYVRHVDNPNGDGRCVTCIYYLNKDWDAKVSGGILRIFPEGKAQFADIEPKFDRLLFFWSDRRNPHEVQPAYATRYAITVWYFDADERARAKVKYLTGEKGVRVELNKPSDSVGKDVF

Compound | IC50
O=C(O)CN1CCC2(CC1)C(=O)N(c1ccc(-c3ccccc3)cc1)c1ncccc12 [Example 9, (1′-biphenyl-4-yl-2′-oxo-1′,2′-dihydro-1H-spiro[piperidine-4,3′-pyrrolo[2,3-b]pyridin]-1-yl)acetic acid] | 10 to 50 nM
O=C(O)CN1CCC2(CC1)C(=O)N(c1ccc(-c3ccccc3)cc1)c1ncc(Br)cc12 [Example 7, (1′-biphenyl-4-yl-5′-bromo-2′-oxo-1′,2′-dihydro-1H-spiro[piperidine-4,3′-pyrrolo[2,3-b]pyridin]-1-yl)acetic acid] | 10 to 50 nM
Cc1cccnc1CN1CCC2(CC1)C(=O)N(c1ccc(-c3ccccc3)cc1)c1ncc(C#N)cc12 [Example 4, 1′-biphenyl-4-yl-1-[(3-methylpyridin-2-yl)methyl]-2′-oxo-1′,2′-dihydrospiro[piperidine-4,3′-pyrrolo[2,3-b]pyridine]-5′-carbonitrile] | 5 to 10 nM
Cc1cccnc1CN1CCC2(CC1)C(=O)N(c1ccc(-c3ccccc3)cc1)c1nc(C(=O)O)ccc12 [Example 6, 1′-biphenyl-4-yl-1-[(3-methylpyridin-2-yl)methyl]-2′-oxo-1′,2′-dihydrospiro[piperidine-4,3′-pyrrolo[2,3-b]pyridine]-6′-carboxylic acid] | ≤ 5 nM
Cc1cccnc1CN1CCC2(CC1)C(=O)N(c1ccc(-c3ccccc3)cc1)c1nc(C#N)ccc12 [Example 3, 1′-biphenyl-4-yl-1-[(3-methylpyridin-2-yl)methyl]-2′-oxo-1′,2′-dihydrospiro[piperidine-4,3′-pyrrolo[2,3-b]pyridine]-6′-carbonitrile] | ≤ 5 nM
O=C(O)CN1CCC2(CC1)C(=O)N(c1ccc(-c3ccccc3)cc1)c1ncc(C(=O)O)cc12 [Example 10, 1′-biphenyl-4-yl-1-(carboxymethyl)-2′-oxo-1′,2′-dihydrospiro[piperidine-4,3′-pyrrolo[2,3-b]pyridine]-5′-carboxylic acid] | 5 to 10 nM
N#Cc1cnc2c(c1)C1(CCN(CC(=O)O)CC1)C(=O)N2c1ccc(-c2ccccc2)cc1 [Example 8, (1′-biphenyl-4-yl-5′-cyano-2′-oxo-1′,2′-dihydro-1H-spiro[piperidine-4,3′-pyrrolo[2,3-b]pyridin]-1-yl)acetic acid] | 10 to 50 nM
Cc1cccnc1CN1CCC2(CC1)C(=O)N(c1ccc(-c3ccccc3)cc1)c1ncc(C(=O)O)cc12 [Example 5, 1′-biphenyl-4-yl-1-[(3-methylpyridin-2-yl)methyl]-2′-oxo-1′,2′-dihydrospiro[piperidine-4,3′-pyrrolo[2,3-b]pyridine]-5′-carboxylic acid] | ≤ 5 nM
